Source: patent publication US8362000B2, “Azetidinyl diamides as monoacylglycerol lipase inhibitors” (Janssen Pharmaceutica NV, priority 2009, dated 2013)
Where a chain is given by its changes, count along the chain named. pIC50, pKd: −log10 of the molar value. Where two headings read alike, the source gives them in different places.

Key:
[1] = target: T1, purified wild type MGL (wt-MGLL 6H-11-313) (Homo sapiens, UniProt Q99685)
T1 sequence (Q99685 1-303): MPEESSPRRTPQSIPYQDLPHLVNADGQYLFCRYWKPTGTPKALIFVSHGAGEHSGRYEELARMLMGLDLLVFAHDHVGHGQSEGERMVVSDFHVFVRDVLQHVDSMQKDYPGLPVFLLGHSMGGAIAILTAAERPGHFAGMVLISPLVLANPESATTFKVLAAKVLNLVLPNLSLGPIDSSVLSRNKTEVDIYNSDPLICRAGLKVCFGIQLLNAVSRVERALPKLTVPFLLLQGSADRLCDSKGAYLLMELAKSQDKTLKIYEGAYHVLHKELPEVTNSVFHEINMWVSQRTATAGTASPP

mutant MGL = target: T2, mutant MGL (Homo sapiens, UniProt Q99685, L169S/L176S); assay: MGL ThermoFluor assay - mutant; format: binding; conditions: for Kd: read-out: MGL mutant ThermoFluor qKd (μM) (using qNMR conc.)
T2 sequence (Q99685 1-303 L169S/L176S): T1 sequence (Q99685 1-303) with L169S, L176S

MGL = target: T3, MGL (Rattus norvegicus, UniProt Q8R431); assay: 2-AG accumulation assay in rat brain homogenate; format: biochemical; conditions: for 2-AG accumulation, % of vehicle control at 1 µM: read-out: Rat Brain 2AG % VehCntrl (%) @ 1 μM
T3 construct: one g rat brain was homogenized using a Polytron homogenizer; from tissue; host or cells: rat brain homogenate
T3 sequence (Q8R431 1-303): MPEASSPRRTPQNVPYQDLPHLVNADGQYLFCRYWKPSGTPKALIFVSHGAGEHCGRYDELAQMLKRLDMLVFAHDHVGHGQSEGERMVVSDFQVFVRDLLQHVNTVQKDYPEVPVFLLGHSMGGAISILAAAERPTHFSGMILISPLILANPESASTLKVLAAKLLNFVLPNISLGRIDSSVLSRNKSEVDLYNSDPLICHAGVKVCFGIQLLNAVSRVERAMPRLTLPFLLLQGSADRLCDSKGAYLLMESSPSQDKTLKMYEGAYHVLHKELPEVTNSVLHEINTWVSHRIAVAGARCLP

[2] = ThermoFluor concentration-response, read-out: MGL mutant ThermoFluor Kd
[3] = rat brain homogenate, compound 1 μM, 2-AG accumulation as percent of vehicle
[4] = ThermoFluor, compound concentration measured by qNMR
[5] = ThermoFluor, compound concentration measured by qNMR, read-out: MGL mutant ThermoFluor qKd (using qNMR conc.)
[6] = ThermoFluor thermal stability binding assay, read-out: MGL mutant ThermoFluor Kd

O=C(c1ccc(OC(F)(F)F)c(Cl)c1)N1CC(N2CCN(C(=O)c3nccs3)CC2)C1 [Cpd 693]
pIC50 [1]: 7.33
pKd (mutant MGL; [2]): 7.22
2-AG accumulation, % of vehicle control at 1 µM (MGL; [3]): 299%

Cc1cc(C(=O)N2CC(N3CCN(C(=O)c4ccns4)CC3)C2)ccc1-c1cccc(C(F)(F)F)c1 [Cpd 1114, 1-(Isothiazol-5-ylcarbonyl)-4-(1-{[2-methyl-3′-(trifluoromethyl)biphenyl-4-yl]carbonyl}azetidin-3-yl)piperazine]
pIC50 [1]: 7.80
pKd (mutant MGL; [2]): 7.31
2-AG accumulation, % of vehicle control at 1 µM (MGL; [3]): 293%

O=C(c1ccc(-c2ccccc2)c(F)c1)N1CC(N2CCN(C(=O)c3nccs3)CC2)C1 [Cpd 166, 1-{1-[(2-Fluorobiphenyl-4-yl)carbonyl]azetidin-3-yl}-4-(1,3-thiazol-2-ylcarbonyl)piperazine]
pIC50 [1]: > 8.30
pKd (mutant MGL; [2]): 8.30
2-AG accumulation, % of vehicle control at 1 µM (MGL; [3]): 509%

O=C(c1cscn1)N1CCN(C2CN(C(=O)c3nn(-c4ccc(Cl)cc4Cl)c4c3CCC/C4=C\c3ccc(Cl)cc3)C2)CC1 [Cpd 1023]
pIC50 [1]: 7.39
pKd (mutant MGL; [2]): 6.84
2-AG accumulation, % of vehicle control at 1 µM (MGL; [3]): 262%

O=C(c1nn(-c2ccc(Cl)cc2Cl)c2c1CCC/C2=C\c1ccc(Cl)cc1)N1CC(N2CCN(C(=O)C(F)(F)F)CC2)C1 [Cpd 1020]
pIC50 [1]: 7.20
pKd (mutant MGL; MGL mutant ThermoFluor Kd, ThermoFluor concentration-response): 5.52
2-AG accumulation, % of vehicle control at 1 µM (MGL): 135%

Cc1c(C(=O)N2CCN(C3CN(C(=O)c4cscn4)C3)CC2)sc2cc(C(F)(F)F)ccc12 [Cpd 705]
pIC50 [1]: 7.00
pKd (mutant MGL; [2]): 7.92
2-AG accumulation, % of vehicle control at 1 µM (MGL; [3]): 487%

Cc1sc(C(=O)N2CC(N3CCN(C(=O)c4nccs4)CC3)C2)cc1-c1ccc(F)cc1 [Cpd 1096]
pIC50 [1]: 7.96
Kd (mutant MGL; [4]): 0.08 µM
2-AG accumulation, % of vehicle control at 1 µM (MGL; [3]): 449%

O=C(c1cscn1)N1CCN(C2CN(C(=O)c3sc4cc(Cl)ccc4c3C(F)(F)F)C2)CC1 [Cpd 699]
pIC50 [1]: 7.16
pKd (mutant MGL; [2]): 7.39
2-AG accumulation, % of vehicle control at 1 µM (MGL; [3]): 253%

O=C(c1ccc2c(-c3ccc(C(F)(F)F)cc3)c[nH]c2c1)N1CC(N2CCN(C(=O)c3cscn3)CC2)C1 [Cpd 1344]
pIC50 [1]: > 8.30
pKd (mutant MGL; [2]): 8.00
2-AG accumulation, % of vehicle control at 1 µM (MGL; [3]): 543%

O=C(c1ccc2c(c1)c(Cl)cn2-c1ccc(F)cc1)N1CC(N2CCN(C(=O)c3nccs3)CC2)C1 [Cpd 1365, 3-Chloro-1-(4-fluorophenyl)-5-({3-[4-(1,3-thiazol-2-ylcarbonyl)piperazin-1-yl]azetidin-1-yl}carbonyl)-1H-indole]
pIC50 [1]: > 8.30
pKd (mutant MGL; [2]): 8.70
2-AG accumulation, % of vehicle control at 1 µM (MGL; [3]): 909%

O=C(c1ccc2c(ccn2-c2ccccn2)c1)N1CC(N2CCN(C(=O)c3nccs3)CC2)C1 [Cpd 1135, 1-Pyridin-2-yl-5-({3-[4-(1,3-thiazol-2-ylcarbonyl)piperazin-1-yl]azetidin-1-yl}carbonyl)-1H-indole]
pIC50 [1]: 7.60
pKd (mutant MGL; [5]): 7.82
2-AG accumulation, % of vehicle control at 1 µM (MGL; [3]): 884%

COc1cc(C(=O)N2CC(N3CCN(C(=O)c4cscn4)CC3)C2)ccc1-c1ccc(Cl)c(C(F)(F)F)c1 [Cpd 262, 1-(1-{[4′-Chloro-2-methoxy-3′-(trifluoromethyl)biphenyl-4-yl]carbonyl}azetidin-3-yl)-4-(1,3-thiazol-4-ylcarbonyl)piperazine]
pIC50 [1]: > 8.30
pKd (mutant MGL; [6]): 8.60
2-AG accumulation, % of vehicle control at 1 µM (MGL; [3]): 386%

O=C(c1ccc(C2CCCCC2)cc1)N1CC(N2CCN(C(=O)c3nccs3)CC2)C1 [Cpd 889]
pIC50 [1]: > 8.30
pKd (mutant MGL; [2]): 8.70
2-AG accumulation, % of vehicle control at 1 µM (MGL; [3]): 683%

O=C(c1ccccc1)N1CCN(C2CN(C(=O)c3sc4ccc(Cl)cc4c3C(F)(F)F)C2)CC1 [Cpd 506]
pIC50 [1]: 7.32
pKd (mutant MGL; [2]): 7.23
2-AG accumulation, % of vehicle control at 1 µM (MGL; [3]): 132%

O=C(c1ccc(-c2ccc(C(F)(F)F)s2)cc1)N1CC(N2CCN(C(=O)c3cscn3)CC2)C1 [Cpd 1071, 1-(1,3-Thiazol-4-ylcarbonyl)-4-[1-({4-[5-(trifluoromethyl)thiophen-2-yl]phenyl}carbonyl)azetidin-3-yl]piperazine]
pIC50 [1]: 8.10
pKd (mutant MGL; [2]): 7.60
2-AG accumulation, % of vehicle control at 1 µM (MGL; [3]): 552%

CCCCc1ccc(C(=O)N2CC(N3CCN(C(=O)c4nccs4)CC3)C2)cc1 [Cpd 894]
pIC50 [1]: > 8.30
pKd (mutant MGL; [2]): 8.22
2-AG accumulation, % of vehicle control at 1 µM (MGL; [3]): 534%

CC(C)(C)c1ccc(C(=O)N2CC(N3CCN(C(=O)c4nccs4)CC3)C2)cc1 [Cpd 672]
pIC50 [1]: 7.77
pKd (mutant MGL; [2]): 7.80
2-AG accumulation, % of vehicle control at 1 µM (MGL; [3]): 268%

O=C(c1ccc(-c2ccc(Br)cc2)cc1)N1CC(N2CCN(C(=O)c3nccs3)CC2)C1 [Cpd 168, 1-{1-[(4′-Bromobiphenyl-4-yl)carbonyl]azetidin-3-yl}-4-(1,3-thiazol-2-ylcarbonyl)piperazine]
pIC50 [1]: > 8.30
pKd (mutant MGL; [2]): 8.00
2-AG accumulation, % of vehicle control at 1 µM (MGL; [3]): 813%

Cc1c(C(=O)N2CC(N3CCN(C(=O)c4ccccc4)CC3)C2)sc2cc(C(F)(F)F)ccc12 [Cpd 505]
pIC50 [1]: 7.41
pKd (mutant MGL; [2]): 8.00
2-AG accumulation, % of vehicle control at 1 µM (MGL; [3]): 236%

O=C(c1ccc(-n2nc3c(c2-c2ccc(Cl)cc2)CCCC3)cc1)N1CC(N2CCN(C(=O)c3nccs3)CC2)C1 [Cpd 1327]
pIC50 [1]: > 8.30
pKd (mutant MGL; [2]): 8.30
2-AG accumulation, % of vehicle control at 1 µM (MGL; [3]): 966%

O=C(c1ccc(-c2ccccc2)cc1)N1CCN(C2CN(C(=O)c3nccs3)C2)CC1 [Cpd 1236, 1-(Biphenyl-4-ylcarbonyl)-4-[1-(1,3-thiazol-2-ylcarbonyl)azetidin-3-yl]piperazine]
pIC50 [1]: 6.41
pKd (mutant MGL; [2]): 7.51
2-AG accumulation, % of vehicle control at 1 µM (MGL; [3]): 167%

O=C(c1ccc2c(ccn2-c2ccc(C(F)(F)F)nc2)c1)N1CC(N2CCN(C(=O)c3nccs3)CC2)C1 [Cpd 1312, 5-({3-[4-(1,3-Thiazol-2-ylcarbonyl)piperazin-1-yl]azetidin-1-yl}carbonyl)-1-[6-(trifluoromethyl)pyridin-3-yl]-1H-indole]
pIC50 [1]: > 8.30
pKd (mutant MGL; [5]): 8.10
2-AG accumulation, % of vehicle control at 1 µM (MGL; [3]): 963%

Cn1ccc2cc(C(=O)N3CC(N4CCN(C(=O)c5nccs5)CC4)C3)cc(-c3cccc(C(F)(F)F)c3)c21 [Cpd 1060]
pIC50 [1]: 8.22
Kd (mutant MGL; [4]): 0.032 µM
2-AG accumulation, % of vehicle control at 1 µM (MGL; [3]): 671%

O=C(c1ccc(Oc2ccc(Br)cn2)cc1)N1CC(N2CCN(C(=O)c3nccs3)CC2)C1 [Cpd 877]
pIC50 [1]: > 8.30
pKd (mutant MGL; [2]): 7.00
2-AG accumulation, % of vehicle control at 1 µM (MGL; [3]): 475%

O=C(c1nccs1)N1CCN(C2CN(C(=O)c3cccc4oc(-c5ccccc5Cl)nc34)C2)CC1 [Cpd 1173]
pIC50 [1]: 7.19
pKd (mutant MGL; [6]): 8.15
2-AG accumulation, % of vehicle control at 1 µM (MGL; [3]): 133%

COc1cc(C(=O)N2CC(N3CCN(C(=O)c4cscn4)CC3)C2)ccc1-c1ccccc1 [Cpd 1253]
pIC50 [1]: 6.14
pKd (mutant MGL; [2]): 7.06
2-AG accumulation, % of vehicle control at 0.1 µM (MGL; rat brain homogenate, compound 0.1 μM, 2-AG accumulation as percent of vehicle, read-out: Rat Brain 2AG % VehCntrl (%) @ 0.1 μM): 110%
2-AG accumulation, % of vehicle control at 1 µM (MGL; [3]): 190%
2-AG accumulation, % of vehicle control at 10 µM (MGL; rat brain homogenate, compound 10 μM, 2-AG accumulation as percent of vehicle, read-out: Rat Brain 2AG % VehCntrl (%) @ 10 μM): 407%
